# Patent publication US20110296540A1, “ASSAY FOR SCREENING ANTIDEPRESSANTS” (priority 2008, published 2011)
# How the values were obtained:
# [1] = tested on: DCX+ immature granule cells; assay: DCX immunohistochemistry: number, dendritic morphology and Sholl analysis of immature granule cells; assay type: in vivo, mice
# Procedure: Immunohistochemistry and confocal imaging. Mice were anesthetized with ketamine/xylazine (100 and 7 mg/kg, respectively) and transcardially perfused (cold saline, followed by 4% cold paraformaldehyde in PBS). […] Immunohistochemistry was performed in the following steps: 2 h incubation in 1:1 formamide/2×SSC at 65° C., 5 min rinse in 2×SSC, 30 min incubation in 2N HCl at 37° C., and 10 min rinse in 0.1M boric acid, pH 8.5, 2 h incubation in 0.1M PBS with 0.3% Triton X-100, and 5% normal donkey serum. Sections were then incubated overnight at 4° C. in primary antibodies for doublecortin (goat; 1:500; Santa Cruz Biotechnology, Santa Cruz, Calif.), bromodeoxyuridine (BrdU; rat; 1:100; Serotec, Oxford, UK), and neuronal-specific nuclear protein (NeuN) (mouse; 1:500; Chemicon, Temecula, Calif.). Biotinylated or fluorescent secondary antibodies were used. All secondary antibodies were purchased from Jackson ImmunoResearch (West Grove, Pa.). DCX staining for Sholl analysis was done as follows: sections were rinsed in PBS, treated with 1% H2O2 in 1:1 PBS and methanol for 15 min to quench endogenous peroxidase activity (and to enhance dendritic staining), incubated in 10% normal donkey serum and 0.3% Triton X-100 for 30 min, and then incubated overnight at 4° C. in primary antibody for doublecortin. After secondary antibody incubation, sections were developed using Vector ABC kit and DAB kit. Bright-field images were taken with a Zeiss (Oberkochen, Germany) Axioplan-2 upright microscope. Stereological procedure was used to quantify labeled cells (Malberg et al., 2000 ? ). All cell counting for triple-stained sections were done using a Zeiss LSM 510 META confocal microscope.
# Sholl analysis. DCX-positive (DCX^+) granule cells with tertiary, relatively untruncated dendritic branches or BrdU/DCX double-positive cells (one DCX^+ cell was traced for each […] hippocampal slice; n=10-12 cells per brain for DAB-stained sections; n=4-8 cells per brain for fluorescent staining, 5 mice per group) were traced using camera lucida at 40× magnification (Neurolucida; MicroBrightField, Williston, Vt.). Adult SvEvTac129 mice (16-20 weeks old) were used to obtain sparsely labeled DCX^+ cells. DCX immunohistochemistry was done to maximize the labeling of dendrites (see above methods). Sholl analysis for dendritic complexity was performed using the accompanying software (NeuroExplorer; MicroBrightField), calculating dendritic complexity including dendritic length and number of intersections (branch points). All samples were number coded, and analysis was done blind to treatment.
# Next, the DCX^+ cells were subcategorized according to their dendritic morphology: (1) DCX^+ cells with no tertiary dendritic processes (FIG. 2A), and (2) DCX^+ cells with complex, tertiary dendrites (FIG. 2B). […] The results are mean±SEM of DCX^+ cells with tertiary branches.
# Double fluorescent immunohistochemistry for BrdU and DCX were performed on hippocampal sections. BrdU cells that were also DCX' were identified and then Sholl analysis on the double-positive cells was performed (FIG. 3 D-G).
# C57BL/6Ntac mice [2] = assay: Changes in coat state
# 1A-High and 1A-Low mice = assay: Novelty-suppressed feeding paradigm in 1A-High and 1A-Low mice; assay type: in vivo; conditions: twenty-five days, 18 mg/kg/day p.o.
# Description: The NSF paradigm is a test of hyponeophagia that measures the latency of a mouse to consume food placed in the middle of a brightly lit, aversive arena.
# C57BL/6Ntac mice [3] = assay: Splash test (grooming); assay type: in vivo; conditions: corticosterone, without or with 3 weeks of fluoxetine 18 mg/kg/day; mean±SEM
# Procedure: This test consisted in squirting 200 ul of a 10% sucrose solution on the mouse's snout. The grooming duration and grooming frequency were then recorded.
# C57BL/6Ntac mice [4] = assay: Home cage activity; assay type: in vivo; conditions: chronic antidepressant treatment (fluoxetine 18 mg/kg/day)
# Procedure: Home cage activity Home cage activity was quantified using the ActiV-Meter (Bioseb, France) over a 24 hours period. During the experiment, food and water were provided ad libitum. Various parameters such as activity time (sec), ambulatory distance (cm) and inactivity duration (calculated from the difference between immobility and motionless activity duration while the animal is eating or scratching) were recorded. The open field paradigm, the novelty suppressed feeding, the forced swim test The procedure for each behavioral test, i.e. the open field paradigm, the novelty suppressed feeding, the forced swim test, is described in the materials and methods section.
# C57BL/6Ntac mice [5] = assay: Open Field paradigm, chronic corticosterone model; assay type: in vivo
# Description: The procedure described previously was used (Dulawa et al., 2004). Motor activity was quantified in four Plexiglas open field boxes 43 times 43 cm2 (MED Associates, Georgia, Vt.). Two sets of 16 pulse-modulated infrared photobeams were placed on opposite walls 2.5-cm apart to record x-y ambulatory movements. Activity chambers were computer interfaced for data sampling at 100-ms resolution. The computer defined grid lines that divided each Open Field into center and surround regions, with each of four lines being 11 cm from each wall. Dependent measures in the center were the total time and the number of entries over a 30-min period of test. The whole session was also divided in […] to analyze the time spent in the center every 5 min. The overall motor activity was quantified as the total distance traveled (cm) or distance traveled in the center divided by total distance traveled.
# Mice were anesthetized with ketamine and xylazine (100 mg/ml ketamine; 20 mg/ml xylazine), placed in a stereotaxic frame and exposed to cranial irradiation using a Siemens Stabilopan X-ray system operated at 300 kVp and 20 mA. Animals were protected with a lead shield that covered the entire body, but left unshielded a 3.22×11-mm treatment field above the hippocampus (interaural 3.00 to 0.00) exposed to X-Ray. Dosimetry was done using a Capintec Model PR06G electrometer ionization chamber and Kodak Readypack Radiographic XV films. The corrected dose rate was approximately 1.8 Gy per min at a source to skin distance of 30 cm. The procedure lasted 2 min and 47 sec, delivering a total of 5 Gy. Three 5 Gy doses were delivered on days 1, 4 and 8.
smiles,measurement,setting,value
CNCCC(Oc1ccc(C(F)(F)F)cc1)c1ccccc1 (stereo not drawn) [fluoxetine],dendritic length of DCX+ cells (Sholl analysis),[1]; chronic (28 d),increased
same,number of DCX+ cells with tertiary dendrites,[1]; chronic (28 d),significantly increased
same,number of intersections of DCX+ cells (Sholl analysis),[1]; chronic (28 d),increased
same,dendritic length in 3-week-old granule cells (BrdU/DCX double-positive),[1]; three weeks of fluoxetine,enhanced
same,number of intersections in 3-week-old granule cells (BrdU/DCX double-positive),[1]; three weeks of fluoxetine,enhanced
same,deterioration of the coat state induced by chronic corticosterone,C57BL/6Ntac mice [2]; 3 week fluoxetine regimen,reversed
same,coat state total score (sum of five body parts),"C57BL/6Ntac mice [2]; chronic corticosterone, without or with 3 week fluoxetine, mean±SEM",1.80±0.08
same,"latency to feed (NSF), response to fluoxetine",1A-High and 1A-Low mice; 1A-High mice,no response
same,"latency to feed (NSF), response to fluoxetine",1A-High and 1A-Low mice; 1A-Low mice,responded robustly
same,grooming duration (splash test),C57BL/6Ntac mice [3],99.8 s
same,grooming frequency (splash test),C57BL/6Ntac mice [3],9±1
same,corticosterone-induced decreased home cage activity and flattened circadian rhythm,C57BL/6Ntac mice [4],is not reversed
same,corticosterone-induced anxiety phenotype in the Open Field (time and entries in the center),"C57BL/6Ntac mice [5]; 3-week antidepressant treatment in corticosterone-treated mice, imipramine 40, fluoxetine 18 mg/kg/day",reversed
same,ambulatory distance (Open Field),"C57BL/6Ntac mice [5]; chronic corticosterone, with or without chronic fluoxetine",abolished
same,corticosterone-induced decrease of Open Field center parameters,"C57BL/6Ntac mice [5]; chronic fluoxetine, regardless of X-irradiation",reversed
